Results taken from patent US5519025A, “4-indolylpiperazinyl derivatives” (American Home Products Corporation, priority 1995, dated 1996).

Molecular target: T1, 5-HT1A serotonin receptors (Rattus norvegicus, UniProt P19327)
T1 construct: rat hippocampal membrane homogenate; from tissue; host or cells: rat hippocampus, membrane homogenate
T1 sequence (P19327 1-422): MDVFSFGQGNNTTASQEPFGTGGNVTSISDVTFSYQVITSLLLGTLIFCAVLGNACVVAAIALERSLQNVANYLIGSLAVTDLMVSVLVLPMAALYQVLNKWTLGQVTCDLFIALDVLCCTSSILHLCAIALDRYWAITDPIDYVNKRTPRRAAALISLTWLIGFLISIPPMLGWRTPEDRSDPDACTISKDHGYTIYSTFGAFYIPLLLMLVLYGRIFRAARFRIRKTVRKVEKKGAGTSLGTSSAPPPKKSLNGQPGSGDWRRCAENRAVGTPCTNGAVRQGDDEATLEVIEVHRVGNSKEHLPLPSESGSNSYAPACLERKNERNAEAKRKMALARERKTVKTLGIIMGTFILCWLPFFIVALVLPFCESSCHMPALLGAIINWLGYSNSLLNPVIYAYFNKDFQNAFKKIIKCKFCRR
Assay: displacement of [3H] 8-OHDPAT from 5-HT1A serotonin receptors in rat hippocampal membrane homogenate
Assay type: binding
Settings: [3H] 8-OHDPAT displacement
Source text: High affinity for the serotonin 5-HT1A receptor was established by testing the claimed compound's ability to displace [^3 H] 8-OHDPAT (dipropylaminotetralin) from the 5-HT1A serotonin receptors in rat hippocampal membrane homogenate following the procedure of B. S. Alexander and M. D. Wood, J. Pharm. Pharmacol. 1988, 40, 888-891. […] Based upon this receptor binding data, the compounds of this invention are characterized as anxiolytic and/or antidepressant agents useful in the treatment of depression and in alleviating anxiety. As such, the compounds may be administered neat or with a pharmaceutical carrier to a patient in need thereof. The pharmaceutical carrier may be solid or liquid.

IC50 [nM] | Compound
4.33 | CC1(C(=O)N[C@@H](CN2CCN(c3cccc4[nH]ccc34)CC2)c2ccccc2)CCCCC1 [Example 1]
35.5 | CC1(C(=O)N[C@H](CN2CCN(c3cccc4[nH]ccc34)CC2)c2ccccc2)CCCCC1 [Example 2]
